The data set can be described thus: Observation of deleterious effects in treated animals. Conditions: topical, any animal. The class given is in vivo, pig, rabbit. The procedure: Burn wound model. Four pigs weighing 20-25 kg were anesthetized by intramuscular injection of ketamine (5 mg/kg), strenil® (cazaporonum) (20 mg/kg) and atropine (5 mg/kg). Six uniform burn wounds (110° C., 30 sec) were then made symmetrically on the back of each pig using a modified soldering iron (Ref. 15) with a flat contact area of 20 cm^2. […] After wounding, a thin layer of Intrasite®) gel containing either peptide β1^25 (41-65), buffer or nothing else was applied to the wounds. All wounds were dressed with paraffin gauze. The dressing was changed every two days for the first 10 days and twice a week for the next 30 days. Gel comprising peptide β1^25 (41-65) and control gel were applied and wound measurements were made at each dressing change.
Excision wound model. Four pigs received intramuscular injection of ketamine, strenil® and atropine as described above. Six excision injuries were generated by removing full-thickness sections of skin (3×3 cm) from standardized sites on the back of each animal using a scapel. Three rabbits, were anesthetized by intramuscular injection of ketamine (5 mg/kg). Three excision injuries were produced in each by removing full-thickness sections of skin (0.5×1 cm) from each ear. […]

This note sets out measurements from patent US7723473B2, “Peptide antagonists of TGF-beta family members and therapeutic uses thereof” (St. Louis University, priority 1997, dated 2010).

As for “ANFCLGPCPYIWSLDTQYSKVLALY [peptide β1^25 (41-65)]”, the deleterious effects entry is recorded as “no apparent deleterious effects”.
